The test system of one data set is pregnant C57Bl6/J mice. The experiment in a line: CSE inhibition in pregnant mice (PAG, with or without GYY4137). Format: in vivo. The protocol: Eight to ten week old C57/black6 mice were mated. The first day of pregnancy (E0.5) was defined by the presence of a vaginal plug the following morning. Pregnant mice were randomly assigned into four groups: (i) saline (vehicle control), (ii) 25 mg/kg DL-propargylglycine (PAG; Sigma, Poole, U.K.), (iii) 50 mg/kg group PAG and (iv) 50 mg/kg
PAG with 0.25 mg/kg of slow-releasing H2S donor, GYY4137(Sigma). Mice were injected intraperitoneally (i.p.) with saline or PAG from E8.5. Blood pressure was measured by tail cuff-plethysmography. Mice were trained for measurement on alternate days from E4.5. Alternatively, mice were anesthetized by Ketamine/Xylazine cocktail. The carotid artery was isolated and cannulated with a 3-Fr high-fidelity microtip catheter connected to a pressure transducer (Millar Instruments, Houston, Tex., USA). Blood pressure was recorded and averaged over a 10-minute period. On E17.5, after blood pressure measurement and blood sample collection the animals were sacrificed and kidney, liver, and placenta were collected. The un-absorbed fetuses and placentas were counted and weighed.
Kidney, liver, and placenta were immersion fixed in 4% paraformaldehyde for 24 hours and processed to paraffin. A series of 5-μm sections were cut and processed for hematoxylin & eosin (H&E) staining.
(§1) Enzyme-linked immunosorbent assay (ELISA) kits for human and murine soluble Flt-1, soluble endoglin and PlGF were obtained from R&D Systems and performed according to the manufacturer's specifications.
Serial 3-5-μm sections of formalin-fixed, paraffin-embedded human and murine placental tissue were prepared for immunohistochemistry as previously described.^29 Biotin-labelled isolectin B4, anti-CSE (5 mg/ml) and isotype control were used. The staining was analyzed using a Nikon inverted microscope and an Image Pro Plus image analysis software (Media Cybernetics).
Citrated blood was obtained from women with uncomplicated pregnancies (n=14) and preeclampsia (n=14) and also from pregnant mice before termination of pregnancy. H2S levels were measured as described previously with modification.^32 Briefly, 75 μl plasma was mixed with 250 μl of 1% (w/v) zinc acetate and 425 μl water, followed by […] 50% trichloroacetic acid to remove protein. Then 133 μl 20 mM N-dimethyl-p-phenylenediamine sulphate in 7.2 mM HCl and 133 μl 30 μM FeCl3 in 1.2 mM HCl were added to the mixture. After 10 min incubation at room temperature, reaction mixtures were pelleted by centrifugation at 10,000 g (2 minutes). The absorbance of the resulting solution was measured at 670 nm with a spectrophotometer in a 96-well plate. The concentration of H2S in the solution was calculated against a calibration curve of sodium hydrogen sulfide.
Three groups (5-8/group) of pregnant C57Bl6/J mice were treated daily with vehicle or 25 mg/kg PAG or 50 mg/kg PAG from E8.5 to E16.5. After 8 days of treatment, plasma was pooled from all animals in each treatment group, and pooled H2S levels were measured. […] The labyrinth zone consists of cells of trophoblast and mesodermal origin that together undergo branching morphogenesis, resulting in a large surface area for nutrient and gas exchange between the mother and fetus. The maternal blood space is lined by trophoblast. During placental development, this space becomes progressively more finely divided.^37, 38 Using isolectin B4 to highlight the fetal endothelial cell,^39 we compared the anatomical features of the labyrinth zone in vehicle and 50 mg/kg PAG-treated mice.

In data set [1] the test system is first trimester human placental explants. Put plainly: Angiogenic factor release from first trimester placental villus explants (ELISA of conditioned medium). Format: cell-based. To be noted: increasing concentration of PAG over 24 hours.
Text: Institutional Ethics Committee approved the blood and tissue collection and written informed consent was obtained. We analysed blood samples from women with singleton pregnancies recruited in the Low- and High-Risk Clinics and Labour and Delivery Unit. All women were followed prospectively from enrolment until delivery. Human placental tissues were collected from pregnancies complicated by preeclampsia and uncomplicated pregnancies delivered by elective Caesarean. Samples of placental tissue were processed for RNA extraction and maternal plasma from the same patients (n=14 PE and n=14 control) were used for analysis. From another set of patients placenta (n=5 PE and n=5 control) was collected for the immunohistochemical study. Preeclampsia was defined as blood pressure >140/90 mm Hg on at least 2 consecutive measurements and maternal proteinuria of at least 300 mg/24 h. First trimester placental tissues (6-9 weeks gestational age) were retrieved from normal pregnancies that had undergone elective termination. Villus explants were prepared as described previously.^29 Briefly, human placental villus explants were incubated with or without PAG for 24 hours, and conditioned media collected and assayed for sFlt-1 or sEng and PlGF.
as §1
Angiogenic factors produced by placenta are important in regulating placental vascular development.^33 Imbalance of pro- and anti-angiogenic factors generated by the placenta^29 may account for the widespread maternal endothelial dysfunction in preeclampsia.^34 To investigate whether reduced levels of CSE has any effect on the production of placental angiogenic factor production, sFlt-1, sEng, and PlGF levels were measured in conditioned medium from first trimester human placental explants in the presence of increasing concentration of CSE inhibitor PAG over 24 hours.
(In general: In an ELISA, binding on a coated surface is turned into a signal by an enzyme label.)

A further data set deals with HTR-8/SVneo cells. The experiment in a line: Trophoblast cell invasion assay (Matrigel-coated transwell). Format: cell-based, human. The conditions noted are these: PAG 50 μM, 24 h, p<0.01, n=3. The protocol:
The human extravillus trophoblast (EVT) cell line HTR-8/SVneo was a kind gift from Professor Charles H. Graham, Queen's University, Kingston, Ontario, Canada. The invasion assay was performed as described previously, with modification.30 Briefly, HTR-8/SVneo (50,000) cells treated with or without PAG were placed in the upper chamber of Matrigel-coated (1 mg/ml) transwell inserts (8 μm pore, Falcon, BD, UK) and housed in a 24-well plate. The cells were allowed to invade through the reconstituted extracellular matrix for 24 h in the presence or absence of 50 µM PAG (n=3). Trophoblast cells located on the under-surface of the transwell membrane were fixed with ice-cold methanol and stained with hematoxylin, and brightfield images were obtained with Nikon inverted microscope and Image Pro Plus image analysis software (Media Cybernetics). Transwell migration assays of HTR-8/SVneo cells in the presence of 50 µM of PAG were performed as described in Methods. (A) Migrated HTR-8/SVneo were stained with hematoxylin, and brightfield images were captured. (B) Cell numbers were counted, and results are expressed as a percentage of the control (n=3).

The test system of the next data set is rat. The conditions noted are these: chronic administration; cited from earlier work.
The subject of the next data set is HUVEC. The conditions noted are these: preeclamptic plasma, 100 mM NaHS.
The mark [2] stands for this setting: GYY4137 0.25 mg/kg with 50 mg/kg PAG.
The mark [3] stands for this setting: GYY4137 in mice treated with 50 mg/kg PAG.

Experimental for HUVEC: The spontaneous formation of capillary-like structures by HUVECs on growth factor-reduced Matrigel (Becton Dickinson, Bedford, Mass.), was used to assess angiogenic potential. HUVECs were treated with plasma samples collected from pregnancies complicated by preeclampsia and uncomplicated pregnancies with or without H2S donor (NaHS) and incubated at 37° C. for 24 hours. Ninety-six well plates were coated with Matrigel (10 mg/ml) according to the manufacturer's instructions. HUVECs (1×10^4 cells/well) were then seeded on Matrigel-coated plates.

Consider `C1COCCN1.COc1ccc(P(=S)(S)N2CCOCC2)cc1` (centres unmarked) [GYY4137, morpholin-4-ium 4 methoxy phenyl(morpholino)phosphinodithiolate], for which, in the data set with pregnant C57Bl6/J mice (setting [2]), the “all the changes of PAG-treated pregnant mice (blood pressure, AST)” value is reported as “abrogated” and the “fetal growth compromised by the CSE inhibitor” value is given as “restored”. In the data set with pregnant C57Bl6/J mice (setting [3]), the “plasma levels of sEng induced by CSE inhibition” value is “inhibited” and the “plasma levels of sFlt-1 induced by CSE inhibition” value is “inhibited”. In the data set with pregnant C57Bl6/J mice (GYY4137 with PAG), the “blood pressure compromised by PAG-treatment” value is recorded as “rescued” and the “liver function compromised by PAG-treatment” value is “rescued”. In the data set with pregnant C57Bl6/J mice (GYY4137 with PAG 50 mg/kg), the “placental vascular defect due to inhibition of CSE activity” value is given as “restored”.

Regarding `C#CCC(N)C(=O)O` (racemic) [PAG, DL-propargylglycine], in data set [1], the PlGF production result is recorded as “significantly reduced”, the “sEng levels in conditioned medium” value was “remained unchanged” and the “sFlt-1 levels in conditioned medium” value is listed as “remained unchanged”. Moreover, the “cell invasion compared with vehicle control” value in the data set with HTR-8/SVneo cells is recorded as “significant reduction”. The “fetal vasculature of the placenta (isolectin B4)” value with pregnant C57Bl6/J mice (50 mg/kg PAG) is “irregular branching”. Besides, in the data set on pregnant C57Bl6/J mice (50 mg/kg PAG alone), the “plasma levels of sEng” value is on record as “induced” and the “plasma levels of sFlt-1” value was “induced”. Also, the “maternal blood space in the labyrinth zone, versus vehicle controls” value in the data set on pregnant C57Bl6/J mice (50 mg/kg PAG, blinded histology of placental sections) is reported as “appeared larger”. Also, the “circulating H2S levels” value in the data set on pregnant C57Bl6/J mice (25 or 50 mg/kg PAG i.p. daily E8.5 to E16.5, pooled plasma) is on record as “dose-dependent decrease”. Further, the “proteinuria (renal pathological changes)” value with pregnant C57Bl6/J mice (PAG treated animals) is given as “not noted”. The “circulating liver enzyme aspartate transaminase (AST), liver damage” value in the data set on pregnant C57Bl6/J mice (PAG-treated animals) is reported as “increased level”. This molecule came in with a mean blood pressure in the data set with pregnant C57Bl6/J mice (high dose PAG (50 mg/kg), vehicle control 64.74±2.04) of 74.40±4.61. Besides, in the data set with pregnant C57Bl6/J mice (higher dose PAG (50 mg/kg), after 8 days of treatment, pooled plasma), the “reduction of plasma H2S levels” value was “approximately 50%”. The fetal weight entry in the data set on pregnant C57Bl6/J mice (higher dose of PAG) is reported as “significantly decreased”. In the data set with rat, the blood pressure entry is listed as “elevated”.

With `[Na+].[SH-]` [NaHS, sodium hydrogen sulfide], the “ability of HUVECs to form tube-like structure” value in the data set with HUVEC is reported as “partially restored”.

These data come from patent publication US10195220B2, “Hydrogen sulphide compounds” (Aston University, priority 2013, dated 2019).
